# Measurements taken from patent publication US20120277257A1, “Methods of Treating Diseases, Pharmaceutical Compositions, and Pharmaceutical Dosage Forms” (MYREXIS, INC., priority 2009, published 2012).
# Where two headings read alike, the source gives them in different places.
# Key:
# [1] = tested on: DU-145 prostate cancer; assay: DU-145 prostate cancer xenograft; type: in vivo, mice; conditions: 200 mg/kg oral, 5-days-on/2-days-off, after 5 cycles
# [2] = tested on: MV-4-11 acute myeloid leukemia; assay: MV-4-11 acute myeloid leukemia xenograft; type: in vivo, mice; conditions: 200 mg/kg oral, daily for 21 days
# [3] = tested on: OVCAR-3 ovarian cancer; assay: OVCAR-3 ovarian cancer xenograft; type: in vivo, mice; conditions: daily for 35 days
# [4] = tested on: B16 melanoma allograft; assay: B16 melanoma allograft; type: in vivo, mice; conditions: 200 mg/kg oral, daily for 8 days
# [5] = tested on: BT-474 HER2+ breast cancer; assay: BT-474 HER2+ breast cancer xenograft; type: in vivo, mice; conditions: 200 mg/kg oral, daily for 70 days
# [6] = tested on: K-562 erythroleukemia; assay: K-562 erythroleukemia xenograft; type: in vivo, mice; conditions: daily for 18 days
# [7] = tested on: multiple murine xenograft models; assay: Murine xenograft models, summary across models; type: in vivo, mice
# [8] = Phase I clinical trial, human plasma pharmacokinetics of oral Compound 1; type: in vivo; conditions: for AUC(0-inf) / Vd/F / AUC(0-t) / Cmax / Tmax / half-life: human, plasma, po; for Vd/F: read-out: Vz/F; for AUC(0-t): read-out: AUC(0-24)
# Description: A human clinical study was initiated at a starting dose of 50 mg/m^2. Subjects had recurrent cancer refractory to available systemic therapy. Compound 1 was administered daily by mouth in tablet form for 21 consecutive days in a 28 day cycle to each enrolled subject. […] Plasma was collected pre-dose only for cycle 1 day 8. […] Patients were men and women with metastatic cancer, ranged in age from 45 to 85 years, and received doses ranging from 50 mg/m^2 to 340 mg/m^2, with a total daily dose of 100-740 mg (Tables 2A and 2B).
# [9] = both sexes, 50 mg/m^2, Day 01, Cohort 1, 50 mg/m^2 (100 mg), oral daily
# [10] = both sexes, 100 mg/m^2, Day 01, Cohort 2, 100 mg/m^2 (160 mg), oral daily
# [11] = both sexes, 165 mg/m^2, Day 01, Cohort 3, 165 mg/m^2 (300 mg), oral daily
# [12] = both sexes, 240 mg, Day 01, Cohort 6 (BID), N = 4, 240 mg, oral twice daily
# [13] = both sexes, 240 mg, Day 21, Cohort 6 (BID), N = 2, 240 mg, oral twice daily
# [14] = both sexes, 245 mg/m^2, Day 01, Cohort 4, 245 mg/m^2 (340-540 mg), oral daily
# [15] = both sexes, 340 mg/m^2, Day 01, Cohort 5 (BID), N = 6, 340 mg/m^2 (270-370 mg), oral twice daily
# [16] = both sexes, Day 21, Cohort 4, N = 6, 176-245 mg/m^2 (340-540 mg), oral daily
# [17] = 50 mg/m^2, Day 01, Cohort 1, Subject 101, 50 mg/m^2 (100 mg), oral daily
# [18] = 50 mg/m^2, Day 19, Cohort 1, 50 mg/m^2 (100 mg), oral daily
smiles,measurement,setting,value
"C[C@H](O)C(=O)N1CCC(CCn2c(Sc3cc4c(cc3Br)OCO4)nc3c(N)ncnc32)CC1 [Compound 1, (2S)-1-[4-(2-{6-amino-8-[(6-bromo-1,3-benzodioxol-5-yl)thio]-9H-purin-9-yl}ethyl)piperidin-1-yl]-1-oxopropan-2-ol]","TGI (tumor growth inhibition), average",[1],Average of ~80% TGI after 5
same,tumor regression,[2],50% regression
same,TGI (tumor growth inhibition),[3]; 150 mg/kg oral,84%
same,TGI (tumor growth inhibition),[3]; 200 mg/kg oral,97%
same,TGI (tumor growth inhibition),[4],50% TGI
same,tumor regression,[5],17% regression
same,TGI (tumor growth inhibition),"[6]; 150 mg/kg oral, p = 0.14","82% TGI (p = 0.14) 150 mg/kg,"
same,TGI (tumor growth inhibition),"[6]; 200 mg/kg oral, p = 0.05",97% TGI (p = 0.05)
same,"tumor regression, maximum over models","[7]; 200 mg/kg oral, various xenograft models",up to 50%
same,weight loss of animals,[7]; xenografted mice dosed orally with Compound 1,no significant weight loss
same,CL/F,"[8]; Day 01, Cohort 1, 50 mg/m^2 (100 mg), oral daily",4098 mL/h
same,CL/F,"[8]; Day 01, Cohort 2, 100 mg/m^2 (160 mg), oral daily",4343 mL/h
same,CL/F,"[8]; Day 01, Cohort 3, 165 mg/m^2 (300 mg), oral daily",2405 mL/h
same,CL/F,"[8]; Day 01, Cohort 4, 245 mg/m^2 (340-540 mg), oral daily",3118 mL/h
same,CL/F,"[8]; Day 01, Cohort 5 (BID), 340 mg/m^2 (270-370 mg), oral twice daily",2517 mL/h
same,CL/F,"[8]; Day 01, Cohort 5, 340 mg/m^2 (480-620 mg), oral daily",2500 mL/h
same,CL/F,"[8]; Day 01, Cohort 6 (BID), 240 mg, oral twice daily",5956 mL/h
same,CL/F,"[8]; Day 19, Cohort 1, 50 mg/m^2 (100 mg), oral daily",4547 mL/h
same,CL/F,"[8]; Day 21, Cohort 2, 100 mg/m^2 (160 mg), oral daily",3213 mL/h
same,CL/F,"[8]; Day 21, Cohort 3, 165 mg/m^2 (300 mg), oral daily",1502 mL/h
same,CL/F,"[8]; Day 21, Cohort 4, 176-245 mg/m^2 (340-540 mg), oral daily",3509 mL/h
same,CL/F,"[8]; Day 21, Cohort 5 (BID), 340 mg/m^2 (330 mg), oral twice daily",4746 mL/h
same,CL/F,"[8]; Day 21, Cohort 5, 340 mg/m^2 (620 mg), oral daily",1323 mL/h
same,CL/F,"[8]; Day 21, Cohort 6 (BID), 240 mg, oral twice daily",4003 mL/h
same,AUC(0-inf),[8]; [9],24400 ng·h/mL
same,Vd/F,[8]; [9],50.5 L
same,AUC(0-inf),[8]; [10],36800 ng·h/mL
same,AUC(0-t),[8]; [10],29900 ng·h/mL
same,Vd/F,[8]; [10],61.6 L
same,AUC(0-inf),[8]; [11],125000 ng·h/mL
same,AUC(0-t),[8]; [11],91800 ng·h/mL
same,Vd/F,[8]; [11],40 L
same,Cmax,[8]; [12],6250 ng/mL
same,Tmax,[8]; [12],1 h
same,half-life,[8]; [12],5.5 h
same,Cmax,[8]; [13],9200 ng/mL
same,Tmax,[8]; [13],1.5 h
same,half-life,[8]; [13],6.2 h
same,AUC(0-inf),[8]; [14],143000 ng·h/mL
same,AUC(0-t),[8]; [14],99100 ng·h/mL
same,Vd/F,[8]; [14],61.4 L
same,Cmax,[8]; [15],8120 ng/mL
same,Tmax,[8]; [15],2 h
same,half-life,[8]; [15],7.5 h
same,Cmax,[8]; [16],9270 ng/mL
same,Tmax,[8]; [16],2 h
same,half-life,[8]; [16],13.2 h
same,oral bioavailability,[8]; human cancer patients,orally bioavailable
same,increase in drug levels with increasing dose,"[8]; human patients, oral tablets",more-than-proportional increase
same,AUC(0-t),"[8]; 50 mg/m^2, Day 01, Cohort 1, 50 mg/m^2 (100 mg), oral daily",20600 ng·h/mL
same,Cmax,[8]; [17],1900 ng/mL
same,Tmax,[8]; [17],2 h
same,half-life,[8]; [17],8.5 h
same,AUC(0-inf),[8]; [18],30800 ng·h/mL
same,AUC(0-t),[8]; [18],22000 ng·h/mL
same,Vd/F,[8]; [18],88 L
